{"source": "patent US8952024B2", "about": "“Herbicidal pyrimidone derivatives” (E I du Pont de Nemours and Company, priority 2009, dated 2015)", "format_in_all_cases": "in vivo", "key": {"[1]": {"system": "chickweed (Stellaria media)", "test": "Test B postemergence plant response", "details": "Postemergence", "how_it_was_run": "(§1)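 Visual ratings from 0 (no effect) to 100 (complete control), made against controls 13–15 days after treatment, kept in a greenhouse. Compounds were applied postemergence to potted plants at the 1- to 4-leaf stage (2–18 cm).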"}, "[2]": {"system": "windgrass (Apera spica-venti)", "test": "Test B postemergence plant response", "details": "Postemergence", "how_it_was_run": "as §1"}, "[3]": {"system": "canarygrass (Phalaris minor)", "test": "Test B postemergence plant response", "details": "Postemergence", "how_it_was_run": "as §1"}, "[4]": {"system": "johnsongrass (Sorghum halepense)", "test": "Test B pre-/postemergence plant response", "details": "Postemergence", "how_it_was_run": "(§2)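 Plants treated either at seeding (loam/sand soil) or postemergence at 2 to 18 cm height, using a surfactant-containing non-phytotoxic solvent formulation. Evaluation was visual after 13 to 15 days, 0 to 100 scale relative to controls.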"}, "[5]": {"system": "blackgrass (Alopecurus myosuroides)", "test": "Test B pre-/postemergence plant response", "details": "Postemergence", "how_it_was_run": "as §2"}, "kochia (Kochia scoparia)": {"system": "kochia (Kochia scoparia)", "test": "Test B pre-/postemergence plant response", "details": "Postemergence", "how_it_was_run": "as §2"}, "[6]": {"system": "velvetleaf (Abutilon theophrasti)", "test": "Test B pre-/postemergence plant response", "details": "Postemergence", "how_it_was_run": "as §2"}, "[7]": {"system": "bermudagrass (Cynodon dactylon)", "test": "Test B pre-/postemergence plant response", "details": "Postemergence", "how_it_was_run": "as §2"}, "[8]": {"system": "giant foxtail (Setaria faberii)", "test": "Test B pre-/postemergence plant response", "details": "Postemergence", "how_it_was_run": "as §2"}, "[9]": {"system": "morningglory (Ipomoea coccinea)", "test": "Test B pre-/postemergence plant response", "details": "Postemergence", "how_it_was_run": "as §2"}, "[10]": {"system": "yellow nutsedge (Cyperus esculentus)", "test": "Test B pre-/postemergence plant response", "details": "Postemergence", "how_it_was_run": "as §2"}, "[11]": {"system": "wheat (Triticum aestivum)", "test": "Test B pre-/postemergence plant response", "details": "Postemergence", "how_it_was_run": "as §2"}, "wild oat (Avena fatua)": {"system": "wild oat (Avena fatua)", "test": "Test B pre-/postemergence plant response", "details": "Postemergence", "how_it_was_run": "as §2"}, "[12]": {"system": "green foxtail (Setaria viridis)", "test": "Test B pre-/postemergence plant response", "details": "Postemergence", "how_it_was_run": "as §2"}, "soybean (Glycine max)": {"system": "soybean (Glycine max)", "test": "Test B pre-/postemergence plant response", "details": "Postemergence", "how_it_was_run": "as §2"}, "[13]": {"system": "ragweed (common ragweed, Ambrosia elatior)", "test": "Test B pre-/postemergence plant response", "details": "Postemergence", "how_it_was_run": "as §2"}, "[14]": {"system": "cocklebur (Xanthium strumarium)", "test": "Test B pre-/postemergence plant response", "details": "Postemergence, scale 0 to 100 (0 no effect, 100 complete control)", "how_it_was_run": "as §2"}, "[15]": {"system": "downy bromegrass (Bromus tectorum)", "test": "Test B pre-/postemergence plant response", "details": "Postemergence", "how_it_was_run": "as §2"}, "[16]": {"details": "31 g ai/ha, 0 to 100 scale (0 no effect, 100 complete control)"}, "[17]": {"details": "125 g ai/ha, scale 0 to 100 (0 no effect, 100 complete control)"}, "[18]": {"details": "250 g ai/ha, scale 0 to 100 (0 no effect, 100 complete control), 13 to 15 days"}, "[19]": {"details": "62 g ai/ha, scale 0 to 100 (0 no effect, 100 complete control)"}}}
{"smiles": "CCn1c(-c2cccc(F)c2)ncc(C(=O)C2=C(O)C3CCC(C3)C2=O)c1=O", "note": "(stereo not drawn) [Compound 236]", "values": [{"measurement": "Plant response rating, Chickweed", "setting": "[1]; [16]", "value": 75}, {"measurement": "Plant response rating, Chickweed", "setting": "[1]; [17]", "value": 100}, {"measurement": "Plant response rating, Chickweed", "setting": "[1]; [18]", "value": 100}, {"measurement": "Plant response rating, Chickweed", "setting": "[1]; [19]", "value": 100}, {"measurement": "Plant response rating, Windgrass", "setting": "[2]; [16]", "value": 30}, {"measurement": "Plant response rating, Windgrass", "setting": "[2]; [18]", "value": 85}, {"measurement": "Plant response rating, Windgrass", "setting": "[2]; [19]", "value": 50}, {"measurement": "Plant response rating, Canarygrass", "setting": "[3]; [16]", "value": 0}, {"measurement": "Plant response rating, Canarygrass", "setting": "[3]; [17]", "value": 0}, {"measurement": "Plant response rating, Canarygrass", "setting": "[3]; [18]", "value": 10}, {"measurement": "Plant response rating, Canarygrass", "setting": "[3]; [19]", "value": 0}, {"measurement": "Plant response rating, Johnsongrass", "setting": "[4]; [16]", "value": 0}, {"measurement": "Plant response rating, Johnsongrass", "setting": "[4]; [17]", "value": 20}, {"measurement": "Plant response rating, Johnsongrass", "setting": "[4]; [18]", "value": 55}, {"measurement": "Plant response rating, Johnsongrass", "setting": "[4]; [19]", "value": 15}, {"measurement": "Plant response rating, Blackgrass", "setting": "[5]; [16]", "value": 0}, {"measurement": "Plant response rating, Blackgrass", "setting": "[5]; [17]", "value": 30}, {"measurement": "Plant response rating, Blackgrass", "setting": "[5]; [18]", "value": 40}, {"measurement": "Plant response rating, Blackgrass", "setting": "[5]; [19]", "value": 5}, {"measurement": "Plant response rating, Kochia", "setting": "kochia (Kochia scoparia); [16]", "value": 80}, {"measurement": "Plant response rating, Kochia", "setting": "kochia (Kochia scoparia); [17]", "value": 100}, {"measurement": "Plant response rating, Kochia", "setting": "kochia (Kochia scoparia); [18]", "value": 100}, {"measurement": "Plant response rating, Kochia", "setting": "kochia (Kochia scoparia); [19]", "value": 98}, {"measurement": "Plant response rating, Velvetleaf", "setting": "[6]; [16]", "value": 98}, {"measurement": "Plant response rating, Velvetleaf", "setting": "[6]; [18]", "value": 100}, {"measurement": "Plant response rating, Velvetleaf", "setting": "[6]; [19]", "value": 100}, {"measurement": "Plant response rating, Bermudagrass", "setting": "[7]; [16]", "value": 95}, {"measurement": "Plant response rating, Bermudagrass", "setting": "[7]; [17]", "value": 98}, {"measurement": "Plant response rating, Bermudagrass", "setting": "[7]; [19]", "value": 98}, {"measurement": "Plant response rating, Foxtail, Giant", "setting": "[8]; [16]", "value": 75}, {"measurement": "Plant response rating, Foxtail, Giant", "setting": "[8]; [17]", "value": 95}, {"measurement": "Plant response rating, Foxtail, Giant", "setting": "[8]; [18]", "value": 98}, {"measurement": "Plant response rating, Foxtail, Giant", "setting": "[8]; [19]", "value": 80}, {"measurement": "Plant response rating, Morningglory", "setting": "[9]; [16]", "value": 60}, {"measurement": "Plant response rating, Morningglory", "setting": "[9]; [17]", "value": 95}, {"measurement": "Plant response rating, Morningglory", "setting": "[9]; [19]", "value": 95}, {"measurement": "Plant response rating, Nutsedge, Yellow", "setting": "[10]; [16]", "value": 0}, {"measurement": "Plant response rating, Nutsedge, Yellow", "setting": "[10]; [17]", "value": 15}, {"measurement": "Plant response rating, Nutsedge, Yellow", "setting": "[10]; [18]", "value": 65}, {"measurement": "Plant response rating, Nutsedge, Yellow", "setting": "[10]; [19]", "value": 15}, {"measurement": "Plant response rating, Wheat", "setting": "[11]; [16]", "value": 0}, {"measurement": "Plant response rating, Wheat", "setting": "[11]; [18]", "value": 60}, {"measurement": "Plant response rating, Wheat", "setting": "[11]; [19]", "value": 10}, {"measurement": "Plant response rating, Oat, Wild", "setting": "wild oat (Avena fatua); [16]", "value": 0}, {"measurement": "Plant response rating, Oat, Wild", "setting": "wild oat (Avena fatua); [18]", "value": 60}, {"measurement": "Plant response rating, Oat, Wild", "setting": "wild oat (Avena fatua); [19]", "value": 0}, {"measurement": "Plant response rating, Foxtail, Green", "setting": "[12]; [16]", "value": 80}, {"measurement": "Plant response rating, Foxtail, Green", "setting": "[12]; [17]", "value": 98}, {"measurement": "Plant response rating, Foxtail, Green", "setting": "[12]; [18]", "value": 98}, {"measurement": "Plant response rating, Foxtail, Green", "setting": "[12]; [19]", "value": 95}, {"measurement": "Plant response rating, Soybean", "setting": "soybean (Glycine max); [16]", "value": 90}, {"measurement": "Plant response rating, Soybean", "setting": "soybean (Glycine max); [18]", "value": 100}, {"measurement": "Plant response rating, Soybean", "setting": "soybean (Glycine max); [19]", "value": 98}, {"measurement": "Plant response rating, Ragweed", "setting": "[13]; [16]", "value": 80}, {"measurement": "Plant response rating, Ragweed", "setting": "[13]; [18]", "value": 98}, {"measurement": "Plant response rating, Ragweed", "setting": "[13]; [19]", "value": 95}, {"measurement": "Plant response rating, Cocklebur", "setting": "[14]; 125 g ai/ha", "value": 100}, {"measurement": "Plant response rating, Cocklebur", "setting": "[14]; 250 g ai/ha, 13 to 15 days", "value": 100}, {"measurement": "Plant response rating, Cocklebur", "setting": "[14]; 62 g ai/ha", "value": 100}, {"measurement": "Plant response rating, Bromegrass, Downy", "setting": "[15]; [16]", "value": 0}, {"measurement": "Plant response rating, Bromegrass, Downy", "setting": "[15]; [17]", "value": 10}, {"measurement": "Plant response rating, Bromegrass, Downy", "setting": "[15]; [18]", "value": 25}, {"measurement": "Plant response rating, Bromegrass, Downy", "setting": "[15]; [19]", "value": 5}]}
